Reference: ChEMBL document CHEMBL3217616, “Modular assembly of cytotoxic acetogenin mimetics by click linkage with nitrogen functionalities” (Medchemcomm, 2011)

Experiments:
K562 = test: Cytotoxicity against human K562 cells after 48 hrs by CCK-8 assay; assay type: functional, cell-based; settings: K562, 48 h
Kasumi 1 = test: Cytotoxicity against human Kasumi-1 cells after 48 hrs by CCK-8 assay; assay type: functional, cell-based; settings: Kasumi 1, 48 h
HL-60 = test: Cytotoxicity against human HL60 cells after 48 hrs by CCK-8 assay; assay type: functional, cell-based; settings: HL-60, 48 h
Jurkat = test: Cytotoxicity against human Jurkat cells after 48 hrs by CCK-8 assay; assay type: functional, cell-based
MCF7 = test: Cytotoxicity against human MCF7 cells after 48 hrs by CCK-8 assay; assay type: functional, cell-based; settings: MCF7, 48 h
[1] = Cytotoxicity against human MDA-MB-435S cells after 48 hrs by CCK-8 assay; assay type: functional, cell-based
BT-549 = test: Cytotoxicity against human BT549 cells after 48 hrs by CCK-8 assay; assay type: functional, cell-based; settings: BT-549, 48 h
BT-474 = test: Cytotoxicity against human BT474 cells after 48 hrs by CCK-8 assay; assay type: functional, cell-based; settings: BT-474, 48 h
SK-BR-3 = test: Cytotoxicity against human SK-BR-3 cells after 48 hrs by CCK-8 assay; assay type: functional, cell-based; settings: SK-BR-3, 48 h
SW-620 = test: Cytotoxicity against human SW620 cells after 48 hrs by CCK-8 assay; assay type: functional, cell-based; settings: SW-620, 48 h
U-937 = test: Cytotoxicity against human U937 cells after 48 hrs by CCK-8 assay; assay type: functional, cell-based; settings: U-937, 48 h
[2] = Cytotoxicity against human NB4 cells after 48 hrs by CCK-8 assay; assay type: functional, cell-based; settings: NB-4, 48 h
[3] = Cytotoxicity against human NB4 cells assessed as growth inhibition at 0.2 uM after 48 hrs by CCK-8 assay; assay type: functional; settings: NB-4, 48 h
[4] = Cytotoxicity against human NB4 cells assessed as growth inhibition at 5 to 25 uM after 48 hrs by CCK-8 assay; assay type: functional, NB-4

SMILES | IC50 (K562) [µM] | IC50 (Kasumi 1) [µM] | IC50 (HL-60) [µM] | IC50 (Jurkat) [µM] | IC50 (MCF7) [µM] | IC50 [1] [µM] | IC50 (BT-549) [µM] | IC50 (BT-474) [µM] | IC50 (SK-BR-3) [µM] | IC50 (SW-620) [µM] | IC50 (U-937) [µM] | IC50 [2] [µM] | inhibition at 0.2 µM [3] [%] | inhibition (INH) [4] [%]
CCCCCCCCCC[C@H](O)COCCOC[C@@H](O)Cc1cn(CCCCCCCCCC2=C[C@H](C)OC2=O)nn1 | 8.5 | 17.8 | > 25 | > 25 | > 25 | > 25 | > 25 | > 25 | > 25 | > 25 | > 25 | 3.2 |  | 
CCCCCCCCCC[C@H](O)COCCOC[C@@H](O)CC(=O)NCCCCCCCCCC1=C[C@H](C)OC1=O | 15 | 16.7 | 7.4 | 14 | > 25 | > 25 | > 25 | > 25 | > 25 | > 25 | 5.2 | 4.5 |  | 
CCCCCCCCCC[C@H](O)COCCOC[C@@H](O)CCCCCCCCCCCCC1=C[C@H](C)OC1=O | 2.7 | 1.1 | > 25 | 2.6 | > 25 | > 25 | 3.3 | > 25 | 22.1 | > 25 | 1.2 | 0.7 | 48.6 | >70
CCCCCCCCCC[C@H](O)COCCOC[C@@H](O)CCC1CCN(CCCCCCCCCC2=C[C@H](C)OC2=O)CC1 | 3.1 | 3.9 | > 25 | 1.2 | > 25 | 5 | 2.2 | > 25 | 8 | 8.1 | 4.4 | 1.9 | 6.2 | >70
